{
  "source": "patent EP2378291A1",
  "about": "“Lacosamide detection assay” (UCB Pharma GmbH, priority 2010, dated 2011)",
  "key": {"[1]": {"assay": "Clinical study: saliva and plasma samples taken in parallel, correlation of lacosamide concentrations", "format": "in vivo, human", "details": "for Kp: human, saliva", "protocol": "One embodiment of the present disclosure relates to the use of saliva samples as a tool to assess the concentration of lacosamide in the body of a mammal, particularly a human being. […] Preferably, saliva samples should be taken at least about 1 hour, preferably at least about 2 hours after an actual administration of lacosamide to said mammal to allow a steady state concentration to form, and to allow the proportional distribution of lacosamide into the saliva.\nAccordingly, one embodiment of the current invention relates to the use of a saliva sample to assess the concentration of lacosamide in the body of a mammal, particularly in the plasma of a patient This can be done based on the recognition that the concentration of lacosamide in saliva is about 1.17 times the concentration in plasma. Based on the measurement of lacosamide in saliva, the concentration in plasma can be easily assessed using the equation C plasma= C saliva x about 0.855 (see Example 3 in the experimental part). The determination of lacosamide in saliva should be done in the steady state, which is usually reached after about one hour to two hours after the last drug administration to the mammal/patient from which the saliva sample is to be taken.\nIn a clinical study saliva and plasma samples have been taken in parallel.\nThe concentrations of lacosamide can be calculated using the following equations: Saliva concentration of lacosamide = 0.065 + 1.1697*plasma concentration of lacosamide [formula] Plasma concentration of lacosamide = 0.855*saliva concentration of lacosamide [formula]\nThese equations were validated by comparing measured lacosamide plasma concentrations with plasma concentrations predicted from measured saliva concentrations."}, "[2]": {"assay": "Expected plasma Cmax at bid doses, used for individual dose adaptation", "format": "in vivo", "protocol": "Based on the determination of the actual lacosamide concentration in plasma (Cmessured) measured at time t (in hours after actual administration) and the comparison with the target concentration, an individual dosing may be adapted according to the following formula dose_new = dose_old⋅(Cmax,expected ⋅e^(-0.05⋅t))/(Cmeasured ⋅e^(-0.05⋅1h)) [formula]\nThe expected Cmax is usually at about 5, 10, 15, or 20 µg/mL for dose 100, 200, 300, or 400 mg bid."}, "[3]": {"assay": "Lacosamide plasma concentration of a patient, HPLC-UV assay with internal standard", "format": "in vivo", "details": "human, patient taking 100 mg twice a day, sample 7 h after the last administration, read-out: measured lacosamide plasma concentration", "protocol": "100 µL of plasma are transferred into Eppendorf tubes.\nCalibration samples are added 10 µL working solution.\nStudy samples are added 10 µL of working solution int standard\nAfter mixing 300 µL of methanol were added, the mixture is vortexed again and centrifuged\n10 minutes at room temperature. 70 µL of the supernatant were transferred into a autosamplervial.\n15 µL were injected into the HPLC-system.\nFor calibration the mean response factor for the peakheight ratios at 10 µg/mL was calculated: • RF = peakheight lacosamide/ peakheight int. Std. • Concentration in samples were calculated: 10/RFcalibration*RFsample\nA patient taking 100 mg twice a day is suffering from seizures. A sample is taken 7 h after the last administration of lacosamide. The measured lacosamide plasma concentration is 1.9 µg/mL. The newly requested Cmax is 5 µg/mL, and the new dose has to be dose_new = 100⋅(5⋅e^(-0.05⋅t))/(1.9⋅e^(-0.05⋅1h)) = 195 mg bid (dose has to be doubled) [formula]"}},
  "note": "Where two headings read alike, the source gives them in different places.",
  "data": [
    {"molecule": "COC[C@@H](NC(C)=O)C(=O)NCc1ccccc1", "note": "[Lacosamide, (R)-2-acetamido-N-benzyl-3-methoxypropionamide]", "values": [
      {"measurement": "correlation between lacosamide concentrations in saliva and plasma", "setting": "[1]; Figure 2", "result": "excellent correlation"},
      {"measurement": "Kp", "setting": "[1]; regression equation with intercept 0.065, read-out: slope of Saliva concentration of lacosamide versus plasma concentration of lacosamide", "result": 1.17},
      {"measurement": "Kp", "setting": "[1]; steady state, about one to two hours after last administration, read-out: concentration of lacosamide in saliva relative to the concentration in plasma", "result": "~1.17"},
      {"measurement": "Cmax", "setting": "[2]; dose 100 mg bid", "result": "~5000", "unit": "ng/mL"},
      {"measurement": "Cmax", "setting": "[2]; dose 200 mg bid", "result": "~10000", "unit": "ng/mL"},
      {"measurement": "Cmax", "setting": "[2]; dose 300 mg bid", "result": "~15000", "unit": "ng/mL"},
      {"measurement": "Cmax", "setting": "[2]; dose 400 mg bid", "result": "~20000", "unit": "ng/mL"},
      {"measurement": "concentration at 7 h", "setting": "[3]", "result": 1900, "unit": "ng/mL"}
    ]}
  ]
}
